Measurements from patent US20260217706A1, “HETEROCYCLIC COMPOUNDS, PREPARATION METHOD THEREFOR AND USE THEREOF” (GUANGZHOU YUFAN NANTU BIOTECHNOLOGIES CO., LTD, priority 2023, published 2026).

Columns and labels:
CBL-B protein = CBL-B protein (Homo sapiens, UniProt Q13191); experiment: CBL-B binding experiment (Streptavidin-Tb cryptate / Ligand L1 displacement); details: 8 nM CBL-B protein, 25° C., 60 minutes; Ki=Relative IC50/2
Summary of the method: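 Buffer was 20 mM HEPES pH 7.5, 150 mM NaCl, 0.01% Triton X-100, 0.5 mM TCEP and BSA. Ten-point compound dilutions were incubated with 8 nM CBL-B for 60 min at 25° C., then read by luminescence after another 60 min at room temperature. IC50 came from a four-parameter fit, with Ki = relative IC50/2.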

[1] = system: anti-CD3 activated human PBMCs; experiment: Effect of compounds on the level of IL-2 secretion by anti-CD3 activated human PBMCs (IL-2 ELISA); assay type: cell-based; details: compound concentration at which fold change in IL-2 = 5; hPBMCs, CD3 antibody 2 μg/mL, 48 h, compound from 3 μM
Summary of the method: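 Human PBMCs were preincubated 1 h, then exposed to compound (10 points, 3-fold from 3 μM final) with anti-CD3 at 2 μg/mL for 48 h at 37° C. Supernatant IL-2 was measured by ELISA as fold change over DMSO.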

Sequence of CBL-B protein (Q13191 whole entry): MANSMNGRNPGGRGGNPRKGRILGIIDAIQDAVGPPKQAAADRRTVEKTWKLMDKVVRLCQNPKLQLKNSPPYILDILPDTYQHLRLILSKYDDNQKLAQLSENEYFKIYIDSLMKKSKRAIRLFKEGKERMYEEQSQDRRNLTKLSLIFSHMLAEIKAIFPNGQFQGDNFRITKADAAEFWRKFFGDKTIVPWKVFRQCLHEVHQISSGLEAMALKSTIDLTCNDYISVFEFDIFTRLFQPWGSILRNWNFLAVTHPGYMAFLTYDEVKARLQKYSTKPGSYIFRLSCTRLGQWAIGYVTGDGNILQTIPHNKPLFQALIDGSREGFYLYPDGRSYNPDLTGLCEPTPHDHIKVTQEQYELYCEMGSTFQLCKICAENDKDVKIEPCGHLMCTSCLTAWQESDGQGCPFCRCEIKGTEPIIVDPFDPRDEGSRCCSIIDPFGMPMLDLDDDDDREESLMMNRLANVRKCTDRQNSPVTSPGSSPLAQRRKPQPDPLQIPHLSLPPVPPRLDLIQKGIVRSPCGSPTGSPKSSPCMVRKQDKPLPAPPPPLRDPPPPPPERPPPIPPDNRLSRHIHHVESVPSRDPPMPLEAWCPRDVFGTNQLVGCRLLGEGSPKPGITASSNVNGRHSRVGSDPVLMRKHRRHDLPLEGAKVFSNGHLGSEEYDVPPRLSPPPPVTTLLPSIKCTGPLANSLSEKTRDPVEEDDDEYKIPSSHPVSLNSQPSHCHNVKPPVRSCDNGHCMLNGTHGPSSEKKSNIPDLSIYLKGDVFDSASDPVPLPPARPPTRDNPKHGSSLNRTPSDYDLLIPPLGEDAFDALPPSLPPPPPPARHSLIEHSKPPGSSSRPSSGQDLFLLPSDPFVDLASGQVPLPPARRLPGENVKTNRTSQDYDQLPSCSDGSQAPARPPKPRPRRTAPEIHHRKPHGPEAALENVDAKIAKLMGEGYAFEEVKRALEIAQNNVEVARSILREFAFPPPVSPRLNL

Row | Compound | Ki (CBL-B protein) | IL-2 CFC=5/nM [1]
1 | C[C@H]1CCCN(Cc2cc3c(C(F)(F)F)cn(-c4cc(C#N)cc([C@]5(c6nncn6C)C[C@H](C)C5)c4)c(=O)c3[nH]2)C1 [Compound T122, 3-((1r,3S)-3-methyl-1-(4-methyl-4H-1,2,4-triazol-3-yl)cyclobutyl)-5-(2-(((S)-3-methylpiperidin-1-yl)methyl)-7-oxo-4-(trifluoromethyl)-1,7-dihydro-6H-pyrrolo[2,3-c]pyridin-6-yl)benzonitrile] | < 50 nM | <500 nM
2 | C[C@H]1CCCN(Cc2cc3c(C(F)(F)F)cn(-c4cccc(C5(Cc6nncn6C)CC(F)(F)C5)c4)c(=O)c3[nH]2)C1 [Compound T126, 6-[3-[3,3-difluoro-1-[(4-methyl-1,2,4-triazol-3-yl)methyl]cyclobutyl]phenyl]-2-[[(3S)-3-methyl-1-piperidyl]methyl]-4-(trifluoromethyl)-1H-pyrrolo[2,3-c]pyridin-7-one] | < 50 nM | <500 nM
3 | C[C@H]1CCCN(Cc2cc3c(C(F)(F)F)cn(-c4cccc([C@]5(c6nncn6C)C[C@@H](OC(F)(F)F)C5)c4)c(=O)c3[nH]2)C1 [Compound T130, 6-(3-((1s,3R)-1-(4-methyl-4H-1,2,4-triazol-3-yl)-3-(trifluoromethoxy)cyclobutyl)phenyl)-2-(((S)-3-methylpiperidin-1-yl)methyl)-4-(trifluoromethyl)-1,6-dihydro-7H-pyrrolo[2,3-c]pyridin-7-one] | < 50 nM | <500 nM
4 | C[C@H]1CCCN(Cc2cc3c(C(F)(F)F)cn(-c4cccc([C@]5(c6nncn6C)C[C@H](OC(F)(F)F)C5)c4)c(=O)c3[nH]2)C1 [Compound T131, 6-(3-((1r,3S)-1-(4-methyl-4H-1,2,4-triazol-3-yl)-3-(trifluoromethoxy)cyclobutyl)phenyl)-2-(((S)-3-methylpiperidin-1-yl)methyl)-4-(trifluoromethyl)-1,6-dihydro-7H-pyrrolo[2,3-c]pyridin-7-one] | < 50 nM | <500 nM
5 | CO[C@H]1C[C@@](c2cccc(-n3cc(C(F)(F)F)c4cc(CN5CCC[C@H](C)C5)[nH]c4c3=O)c2)(c2nncn2C)C1 [Compound T134, 6-(3-((1s,3R)-3-methoxy-1-(4-methyl-4H-1,2,4-triazol-3-yl)cyclobutyl)phenyl)-2-(((S)-3-methylpiperidin-1-yl)methyl)-4-(trifluoromethyl)-1,6-dihydro-7H-pyrrolo[2,3-c]pyridin-7-one] | < 50 nM | <500 nM
6 | CO[C@H]1C[C@](c2cccc(-n3cc(C(F)(F)F)c4cc(CN5CCC[C@H](C)C5)[nH]c4c3=O)c2)(c2nncn2C)C1 [Compound T135, 6-(3-((1r,3S)-3-methoxy-1-(4-methyl-4H-1,2,4-triazol-3-yl)cyclobutyl)phenyl)-2-(((S)-3-methylpiperidin-1-yl)methyl)-4-(trifluoromethyl)-1,6-dihydro-7H-pyrrolo[2,3-c]pyridin-7-one] | < 50 nM | <500 nM
7 | CO[C@H]1C[C@@](c2cccc(-n3cc(C(F)(F)F)c4cc(CN5CC6CCC(C6)C5)[nH]c4c3=O)c2)(c2nncn2C)C1 [Compound T145, 2-((3-azabicyclo[3.2.1]octan-3-yl)methyl)-6-(3-((1s,3s)-3-methoxy-1-(4-methyl-4H-1,2,4-triazol-3-yl)cyclobutyl)phenyl)-4-(trifluoromethyl)-1,6-dihydro-7H-pyrrolo[2,3-c]pyridin-7-one] | < 50 nM | <500 nM
8 | CO[C@H]1C[C@@](c2cccc(-n3cc(C(F)(F)F)c4cc(CN5CCCC6(CC6)C5)[nH]c4c3=O)c2)(c2nncn2C)C1 [Compound T147, 2-((5-azaspiro[2.5]octan-5-yl)methyl)-6-(3-((1s,3s)-3-methoxy-1-(4-methyl-4H-1,2,4-triazol-3-yl)cyclobutyl)phenyl)-4-(trifluoromethyl)-1,6-dihydro-7H-pyrrolo[2,3-c]pyridin-7-one] | < 50 nM | <500 nM
9 | CCN(Cc1cc2c(C(F)(F)F)cn(-c3cccc([C@]4(c5nncn5C)C[C@@H](OC)C4)c3)c(=O)c2[nH]1)CC(C)C [Compound T149, 2-((ethyl(isobutyl)amino)methyl)-6-(3-((1s,3s)-3-methoxy-1-(4-methyl-4H-1,2,4-triazol-3-yl)cyclobutyl)phenyl)-4-(trifluoromethyl)-1,6-dihydro-7H-pyrrolo[2,3-c]pyridin-7-one] | < 50 nM | <500 nM
10 | CO[C@H]1C[C@](c2cccc(-n3cc(C(F)(F)F)c4cc(CNCCC5CC5)[nH]c4c3=O)c2)(c2nncn2C)C1 [Compound T154, 2-(((2-cyclopropylethyl)amino)methyl)-6-(3-((1r,3r)-3-methoxy-1-(4-methyl-4H-1,2,4-triazol-3-yl)cyclobutyl)phenyl)-4-(trifluoromethyl)-1,6-dihydro-7H-pyrrolo[2,3-c]pyridin-7-one] | < 50 nM | <500 nM
11 | CO[C@H]1C[C@](c2cccc(-n3cc(C(F)(F)F)c4cc(CN5CCCC(C(F)F)C5)[nH]c4c3=O)c2)(c2nncn2C)C1 (stereo partly drawn) [Compound T156, 2-((3-(difluoromethyl)piperidin-1-yl)methyl)-6-(3-((1r,3r)-3-methoxy-1-(4-methyl-4H-1,2,4-triazol-3-yl)cyclobutyl)phenyl)-4-(trifluoromethyl)-1,6-dihydro-7H-pyrrolo[2,3-c]pyridin-7-one] | < 50 nM | <500 nM

The next lines start with results.

Row | Ki (CBL-B protein) | Compound | IL-2 CFC=5/nM [1]
12 | < 50 nM | Cn1cnnc1[C@]1(c2cccc(-n3cc(C(F)(F)F)c4cc(CN5CCCC(C(F)F)C5)[nH]c4c3=O)c2)C[C@H](C)C1 (stereo partly drawn) [Compound T157, 2-((3-(difluoromethyl)piperidin-1-yl)methyl)-6-(3-((1s,3s)-3-methyl-1-(4-methyl-4H-1,2,4-triazol-3-yl)cyclobutyl)phenyl)-4-(trifluoromethyl)-1,6-dihydro-7H-pyrrolo[2,3-c]pyridin-7-one] | <500 nM
13 | < 50 nM | C[C@H](NCc1cc2c(C(F)(F)F)cn(-c3cccc([C@]4(c5nncn5C)C[C@@H](C)C4)c3)c(=O)c2[nH]1)C(C)(C)C [Compound T158, 2-((((S)-3,3-dimethylbutan-2-yl)amino)methyl)-6-(3-((1s,3R)-3-methyl-1-(4-methyl-4H-1,2,4-triazol-3-yl)cyclobutyl)phenyl)-4-(trifluoromethyl)-1,6-dihydro-7H-pyrrolo[2,3-c]pyridin-7-one] | <500 nM
14 | < 50 nM | CCN(Cc1cc2c(C(F)(F)F)cn(-c3cccc([C@]4(c5nncn5C)C[C@@H](C)C4)c3)c(=O)c2[nH]1)C(C)C [Compound T159, 2-((ethyl(isopropyl)amino)methyl)-6-(3-((1s,3s)-3-methyl-1-(4-methyl-4H-1,2,4-triazol-3-yl)cyclobutyl)phenyl)-4-(trifluoromethyl)-1,6-dihydro-7H-pyrrolo[2,3-c]pyridin-7-one] | <500 nM
15 | < 50 nM | CCCNCc1cc2c(C(F)(F)F)cn(-c3cccc(C4(c5nncn5C)CCC4)c3)c(=O)c2[nH]1 [Compound T160, 6-(3-(1-(4-methyl-4H-1,2,4-triazol-3-yl)cyclobutyl)phenyl)-2-((propylamino)methyl)-4-(trifluoromethyl)-1,6-dihydro-7H-pyrrolo[2,3-c]pyridin-7-one] | <500 nM
16 | < 50 nM | Cn1cnnc1C1(c2cccc(-n3cc(C(F)(F)F)c4cc(CNC(C)(C)C)[nH]c4c3=O)c2)CCC1 [Compound T161, 2-((tert-butylamino)methyl)-6-(3-(1-(4-methyl-4H-1,2,4-triazol-3-yl)cyclobutyl)phenyl)-4-(trifluoromethyl)-1,6-dihydro-7H-pyrrolo[2,3-c]pyridin-7-one] | <500 nM
17 | < 50 nM | Cn1cnnc1C1(c2cccc(-n3cc(C(F)(F)F)c4cc(CNCC(C)(C)C)[nH]c4c3=O)c2)CCC1 [Compound T162, 6-(3-(1-(4-methyl-4H-1,2,4-triazol-3-yl)cyclobutyl)phenyl)-2-((neopentylamino)methyl)-4-(trifluoromethyl)-1,6-di hydro-7H-pyrrolo[2,3-c]pyridin-7-one] | <500 nM
18 | < 50 nM | CCN(Cc1cc2c(C(F)(F)F)cn(-c3cccc([C@]4(c5nncn5C)C[C@@H](OC)C4)c3)c(=O)c2[nH]1)C(C)C [Compound T192] | <500 nM
